Our source for the EC50 and IC50 values is PMC12667739 (ACS infectious diseases, 2025).

Assay [1] addresses T1, ComD (Streptococcus gordonii, UniProt O33646). Kind of assay: cell-based.
Assay [2] deals with T1, ComD. Kind of assay: cell-based. This is another data set of the same source.

As a reminder, the EC50 is the midpoint of the concentration-response curve. Usually IC50 stands for the concentration at which inhibition is half-maximal. Higher therefore signals weaker potency in that assay.

The compound `CC[C@H](C)[C@H](NC(=O)[C@H](CCCNC(=N)N)NC(=O)[C@H](C)NC(=O)[C@H](CCCNC(=N)N)NC(=O)[C@@H](NC(=O)[C@@H](N)CC(=O)O)[C@@H](C)CC)C(=O)N[C@@H](CC(N)=O)C(=O)N[C@@H](CC(N)=O)C(=O)N[C@@H](CO)C(=O)N[C@H](C(=O)N[C@@H](Cc1c[nH]c2ccccc12)C(=O)N[C@@H](CCCNC(=N)N)C(=O)N[C@@H](CC(=O)O)C(=O)N[C@H](C(=O)N[C@@H](Cc1ccccc1)C(=O)N[C@@H](CC(C)C)C(=O)N[C@@H](CCCCN)C(=O)N[C@@H](CCCNC(=N)N)C(=O)N[C@@H](CCCCN)C(=O)O)[C@@H](C)CC)[C@@H](C)CC` [Peptide H4A] gave an EC50 on ComD [1] of 722 nM.
The compound `CC[C@H](C)[C@H](NC(=O)[C@H](CC(=O)O)NC(=O)[C@H](CCCNC(=N)N)NC(=O)[C@H](Cc1c[nH]c2ccccc12)NC(=O)[C@@H](NC(=O)[C@H](CO)NC(=O)[C@H](CC(N)=O)NC(=O)[C@H](CC(N)=O)NC(=O)[C@@H](NC(=O)[C@H](CCCNC(=N)N)NC(=O)[C@H](Cc1c[nH]cn1)NC(=O)[C@H](CCCNC(=N)N)NC(=O)[C@@H](NC(=O)[C@@H](N)CC(=O)O)[C@@H](C)CC)[C@@H](C)CC)[C@@H](C)CC)C(=O)N[C@@H](Cc1ccccc1)C(=O)N[C@@H](CC(C)C)C(=O)N[C@@H](C)C(=O)N[C@@H](CCCNC(=N)N)C(=O)N[C@@H](CCCCN)C(=O)O` [Peptide K17A] registered an EC50 at ComD [1] of 426 nM.
`CC[C@H](C)[C@H](NC(=O)[C@H](CC(=O)O)NC(=O)[C@H](CCCNC(=N)N)NC(=O)[C@H](Cc1c[nH]c2ccccc12)NC(=O)[C@@H](NC(=O)[C@H](CO)NC(=O)[C@H](CC(N)=O)NC(=O)[C@H](CC(N)=O)NC(=O)[C@@H](NC(=O)[C@H](CCCNC(=N)N)NC(=O)[C@H](Cc1c[nH]cn1)NC(=O)[C@H](CCCNC(=N)N)NC(=O)[C@@H](NC(=O)[C@@H](N)CC(=O)O)[C@@H](C)CC)[C@@H](C)CC)[C@@H](C)CC)C(=O)N[C@@H](Cc1ccccc1)C(=O)N[C@@H](CC(C)C)C(=O)N[C@@H](CCCCN)C(=O)N[C@@H](CCCNC(=N)N)C(=O)N[C@@H](C)C(=O)O` [Peptide K19A] came in with a concentration for a half-maximal effect (EC50) at ComD [1] of 272 nM.
`CC[C@H](C)[C@H](NC(=O)[C@H](CC(=O)O)NC(=O)[C@H](CCCNC(=N)N)NC(=O)[C@H](Cc1c[nH]c2ccccc12)NC(=O)[C@@H](NC(=O)[C@H](CO)NC(=O)[C@H](CC(N)=O)NC(=O)[C@H](CC(N)=O)NC(=O)[C@@H](NC(=O)[C@H](CCCNC(=N)N)NC(=O)[C@H](Cc1c[nH]cn1)NC(=O)[C@H](CCCNC(=N)N)NC(=O)[C@@H](NC(=O)[C@@H](N)CC(=O)O)[C@@H](C)CC)[C@@H](C)CC)[C@@H](C)CC)C(=O)N[C@@H](Cc1ccccc1)C(=O)N[C@@H](C)C(=O)N[C@@H](CCCCN)C(=O)N[C@@H](CCCNC(=N)N)C(=O)N[C@@H](CCCCN)C(=O)O` [Peptide L16A] had an EC50 at ComD [1] of 127 nM.
At ComD [1], `CC[C@H](C)[C@H](NC(=O)[C@H](CCCNC(=N)N)NC(=O)[C@H](Cc1c[nH]cn1)NC(=O)[C@H](CCCNC(=N)N)NC(=O)[C@@H](NC(=O)[C@@H](N)CC(=O)O)[C@@H](C)CC)C(=O)N[C@@H](C)C(=O)N[C@@H](CC(N)=O)C(=O)N[C@@H](CO)C(=O)N[C@H](C(=O)N[C@@H](Cc1c[nH]c2ccccc12)C(=O)N[C@@H](CCCNC(=N)N)C(=O)N[C@@H](CC(=O)O)C(=O)N[C@H](C(=O)N[C@@H](Cc1ccccc1)C(=O)N[C@@H](CC(C)C)C(=O)N[C@@H](CCCCN)C(=O)N[C@@H](CCCNC(=N)N)C(=O)N[C@@H](CCCCN)C(=O)O)[C@@H](C)CC)[C@@H](C)CC` [Peptide N7A] showed an EC50 of 203 nM.
`CC[C@H](C)[C@H](NC(=O)[C@H](CCCNC(=N)N)NC(=O)[C@H](Cc1c[nH]cn1)NC(=O)[C@H](CCCNC(=N)N)NC(=O)[C@@H](NC(=O)[C@@H](N)CC(=O)O)[C@@H](C)CC)C(=O)N[C@@H](CC(N)=O)C(=O)N[C@@H](C)C(=O)N[C@@H](CO)C(=O)N[C@H](C(=O)N[C@@H](Cc1c[nH]c2ccccc12)C(=O)N[C@@H](CCCNC(=N)N)C(=O)N[C@@H](CC(=O)O)C(=O)N[C@H](C(=O)N[C@@H](Cc1ccccc1)C(=O)N[C@@H](CC(C)C)C(=O)N[C@@H](CCCCN)C(=O)N[C@@H](CCCNC(=N)N)C(=O)N[C@@H](CCCCN)C(=O)O)[C@@H](C)CC)[C@@H](C)CC` [Peptide N8A] gave an EC50 on ComD [1] of 692 nM.
Same read-out and setting: for `CC[C@H](C)[C@H](NC(=O)[C@H](CO)NC(=O)[C@H](CC(N)=O)NC(=O)[C@H](CC(N)=O)NC(=O)[C@@H](NC(=O)[C@H](CCCNC(=N)N)NC(=O)[C@H](Cc1c[nH]cn1)NC(=O)[C@H](CCCNC(=N)N)NC(=O)[C@@H](NC(=O)[C@@H](N)CC(=O)O)[C@@H](C)CC)[C@@H](C)CC)C(=O)N[C@@H](Cc1c[nH]c2ccccc12)C(=O)N[C@@H](C)C(=O)N[C@@H](CC(=O)O)C(=O)N[C@H](C(=O)N[C@@H](Cc1ccccc1)C(=O)N[C@@H](CC(C)C)C(=O)N[C@@H](CCCCN)C(=O)N[C@@H](CCCNC(=N)N)C(=O)N[C@@H](CCCCN)C(=O)O)[C@@H](C)CC` [Peptide R12A] the value was 127 nM.
The compound `CC[C@H](C)[C@H](NC(=O)[C@H](CC(=O)O)NC(=O)[C@H](CCCNC(=N)N)NC(=O)[C@H](Cc1c[nH]c2ccccc12)NC(=O)[C@@H](NC(=O)[C@H](CO)NC(=O)[C@H](CC(N)=O)NC(=O)[C@H](CC(N)=O)NC(=O)[C@@H](NC(=O)[C@H](CCCNC(=N)N)NC(=O)[C@H](Cc1c[nH]cn1)NC(=O)[C@H](CCCNC(=N)N)NC(=O)[C@@H](NC(=O)[C@@H](N)CC(=O)O)[C@@H](C)CC)[C@@H](C)CC)[C@@H](C)CC)C(=O)N[C@@H](Cc1ccccc1)C(=O)N[C@@H](CC(C)C)C(=O)N[C@@H](CCCCN)C(=O)N[C@@H](C)C(=O)N[C@@H](CCCCN)C(=O)O` [Peptide R18A] came in with an EC50 on ComD [1] of 406 nM.
In the case of `CC[C@H](C)[C@H](N)C(=O)N[C@@H](CCCNC(=N)N)C(=O)N[C@@H](Cc1c[nH]cn1)C(=O)N[C@@H](CCCNC(=N)N)C(=O)N[C@H](C(=O)N[C@@H](CC(N)=O)C(=O)N[C@@H](CC(N)=O)C(=O)N[C@@H](CO)C(=O)N[C@H](C(=O)N[C@@H](Cc1c[nH]c2ccccc12)C(=O)N[C@@H](CCCNC(=N)N)C(=O)N[C@@H](CC(=O)O)C(=O)N[C@H](C(=O)N[C@@H](Cc1ccccc1)C(=O)N[C@@H](CC(C)C)C(=O)N[C@@H](CCCCN)C(=O)N[C@@H](CCCNC(=N)N)C(=O)N[C@@H](CCCCN)C(=O)O)[C@@H](C)CC)[C@@H](C)CC)[C@@H](C)CC` [desD1], on ComD [2], half-maximal inhibition (IC50) required 985 nM.
The compound `CC[C@H](C)[C@H](NC(=O)[C@H](CC(=O)O)NC(=O)[C@H](CCCNC(=N)N)NC(=O)[C@H](Cc1c[nH]c2ccccc12)NC(=O)[C@@H](NC(=O)[C@H](CO)NC(=O)[C@H](CC(N)=O)NC(=O)[C@H](CC(N)=O)NC(=O)[C@@H](NC(=O)[C@H](CCCNC(=N)N)NC(=O)[C@H](Cc1c[nH]cn1)NC(=O)[C@H](CCCNC(=N)N)NC(=O)[C@@H](NC(=O)[C@@H](N)CC(=O)O)[C@@H](C)CC)[C@@H](C)CC)[C@@H](C)CC)C(=O)N[C@@H](Cc1ccccc1)C(=O)N[C@@H](CC(C)C)C(=O)N[C@@H](CCCCN)C(=O)N[C@@H](CCCNC(=N)N)C(=O)O` [desK19] had a half-maximal effective concentration (EC50) on ComD [1] of 309 nM.
